Measured values from patent US10906915B2, “Substituted pyrazoloazepin-4-ones and their use as phosphodiesterase inhibitors” (LEO Pharma A/S, priority 2016, dated 2021).

What follows are compounds tested against human PDE4D catalytic domain (UniProt no. Q08499) (Homo sapiens (Human), UniProt Q08499) (assay: PDE4 assay (TR-FRET, FAM-cAMP cleavage)). Conditions: human PDE4D catalytic domain; molar concentration giving 50% inhibition of substrate cleavage; read-out: PDE4 IC50 range.
Chain of human PDE4D catalytic domain (Q08499 380-740 limits assumed): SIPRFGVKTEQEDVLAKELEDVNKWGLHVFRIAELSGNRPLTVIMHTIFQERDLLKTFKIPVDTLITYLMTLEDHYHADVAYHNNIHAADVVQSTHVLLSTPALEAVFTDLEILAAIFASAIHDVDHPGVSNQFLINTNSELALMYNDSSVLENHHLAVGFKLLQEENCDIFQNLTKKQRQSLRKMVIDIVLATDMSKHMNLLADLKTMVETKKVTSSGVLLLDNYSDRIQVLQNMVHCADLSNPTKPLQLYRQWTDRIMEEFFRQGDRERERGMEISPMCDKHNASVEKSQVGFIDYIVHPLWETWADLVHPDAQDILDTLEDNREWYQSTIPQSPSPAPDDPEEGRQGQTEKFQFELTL
Assay type: biochemical
Description: The human PDE4D catalytic domain (UniProt no. Q08499 [[…]]) was incubated with a mixture of non-labelled cAMP (cyclic adenosine monophosphate) and fluorescein amidite (FAM) conjugated cAMP and titrated test or reference compound. Following brief incubation the enzymatic reaction was stopped by addition of binding buffer containing nanoparticles with immobilized trivalent metal ions capable of binding 1) AMP phospho groups and 2) terbium (Tb) donor fluorophores. Subsequent excitation of the Tb donor triggers time-resolved FRET to adjacent FAM acceptor molecules resulting in light emission. In the presence of a PDE4 inhibitor, AMP generation was reduced resulting in a lower fluorescence signal. The cAMP phosphodiester is not bound by the detection system.
The results were calculated as the molar concentrations resulting in 50% inhibition of the substrate cleavage compared to controls samples, and are expressed as a range of IC50 (nM).
`CCc1nn(CCCOC(=O)c2cc(Cl)ccc2OC)c2c1C(=O)NCC1(CCOCC1)C2` [Example 93, 3-(3-ethyl-4-oxo-spiro[6,8-dihydro-5H-pyrazolo[4,3-c]azepine-7,4′-tetrahydropyran]-1-yl)propyl 5-chloro-2-methoxy-benzoate] showed an IC50 of less than 100 nM.
`CCc1nn(CCCOC(=O)c2ccc(C(=O)N(C)C)cc2)c2c1C(=O)NCC1(CCOCC1)C2` [Example 143, 3-(3-ethyl-4-oxo-spiro[6,8-dihydro-5H-pyrazolo[4,3-c]azepine-7,4′-tetrahydropyran]-1-yl)propyl 4-(dimethylcarbamoyl)-benzoate] was tested, and the IC50 was 100 to 500 nM.
`CCc1nn(CCCOC(=O)C2CC(O)C2)c2c1C(=O)NCC1(CCOCC1)C2` (stereo not shown) [Example 10, 3-(3-ethyl-4-oxo-spiro[6,8-dihydro-5H-pyrazolo[4,3-c]azepine-7,4′-tetrahydropyran]-1-yl)propyl 3-hydroxycyclobutane-carboxylate] gave an IC50 of 100 to 500 nM.
Compound `CCc1nn(CCCOC(=O)c2cccc(F)c2C(F)(F)F)c2c1C(=O)NCC1(CCOCC1)C2` [Example 106, 3-(3-ethyl-4-oxo-spiro[6,8-dihydro-5H-pyrazolo[4,3-c]azepine-7,4′-tetrahydropyran]-1-yl)propyl 3-fluoro-2-(trifluoromethyl)benzoate] has an IC50 of less than 100 nM.
For `CCc1nn(C[C@@H](C)COC(=O)c2cc(OC)ccc2C(F)(F)F)c2c1C(=O)NCC1(CCOCC1)C2` [Example 231, [(2R)-3-(3-ethyl-4-oxo-spiro[6,8-dihydro-5H-pyrazolo[4,3-c]azepine-7,4′-tetrahydropyran]-1-yl)-2-methyl-propyl] 5-methoxy-2-(trifluoromethyl)benzoate], the IC50 was less than 100 nM.
With `CCc1nn(CCCOC(=O)c2cccc(OC)c2)c2c1C(=O)NCC1(CCOCC1)C2` [Example 29, 3-(3-ethyl-4-oxo-spiro[6,8-dihydro-5H-pyrazolo[4,3-c]azepine-7,4′-tetrahydropyran]-1-yl)propyl 3-methoxybenzoate] the IC50 was less than 100 nM.
Work on `CCc1nn(CCCOC(=O)c2c(F)cccc2F)c2c1C(=O)NCC1(CCOCC1)C2` [Example 46, 3-(3-ethyl-4-oxo-spiro[6,8-dihydro-5H-pyrazolo[4,3-c]azepine-7,4′-tetrahydropyran]-1-yl)propyl 2,6-difluorobenzoate] yielded an IC50 of less than 100 nM.
In the case of `CCc1nn(CCCOC(=O)c2ccc3c(c2)OCO3)c2c1C(=O)NCC1(CCOCC1)C2` [Example 57, 3-(3-ethyl-4-oxo-spiro[6,8-dihydro-5H-pyrazolo[4,3-c]azepine-7,4′-tetrahydropyran]-1-yl)propyl 1,3-benzodioxole-5-carboxylate], the IC50 is reported as less than 100 nM.
Compound `CCc1nn(C[C@@H](C)COC(=O)c2cccc(C(C)=O)c2)c2c1C(=O)NCC1(CCOCC1)C2` [Example 181, [(2R)-3-(3-ethyl-4-oxo-spiro[6,8-dihydro-5H-pyrazolo[4,3-c]azepine-7,4′-tetrahydropyran]-1-yl)-2-methyl-propyl] 3-acetylbenzoate] has an IC50 of less than 100 nM.
Compound `CCc1nn(CCCOC(=O)c2cccc(F)c2F)c2c1C(=O)NCC1(CCOCC1)C2` [Example 45, 3-(3-ethyl-4-oxo-spiro[6,8-dihydro-5H-pyrazolo[4,3-c]azepine-7,4′-tetrahydropyran]-1-yl)propyl 2,3-difluorobenzoate] has an IC50 of less than 100 nM.
With `CCc1nn(C[C@@H](C)COC(=O)c2cccc(S(=O)(=O)N3CCCC3)c2)c2c1C(=O)NCC1(CCOCC1)C2` [Example 246, [(2R)-3-(3-ethyl-4-oxo-spiro[6,8-dihydro-5H-pyrazolo[4,3-c]azepine-7,4′-tetrahydropyran]-1-yl)-2-methyl-propyl] 3-pyrrolidin-1-ylsulfonylbenzoate] the IC50 was less than 100 nM.
`CCc1nn(C[C@@H](C)COC(=O)c2ccc(C(=O)N3CCCC3)cc2)c2c1C(=O)NCC1(CCOCC1)C2` [Example 257, [(2R)-3-(3-ethyl-4-oxo-spiro[6,8-dihydro-5H-pyrazolo[4,3-c]azepine-7,4′-tetrahydropyran]-1-yl)-2-methyl-propyl] 4-(pyrrolidine-1-carbonyl)benzoate] was tested, and the IC50 was less than 100 nM.
`CCc1nn(C[C@@H](C)COC(=O)c2cc(OC)cc(C(F)(F)F)c2)c2c1C(=O)NCC1(CCOCC1)C2` [Example 232, [(2R)-3-(3-ethyl-4-oxo-spiro[6,8-dihydro-5H-pyrazolo[4,3-c]azepine-7,4′-tetrahydropyran]-1-yl)-2-methyl-propyl] 3-methoxy-5-(trifluoromethyl)benzoate] showed an IC50 of less than 100 nM.
Work on `CCc1nn(C[C@@H](C)COC(=O)c2ccc(S(N)(=O)=O)cc2)c2c1C(=O)NCC1(CCOCC1)C2` [Example 215, [(2R)-3-(3-ethyl-4-oxo-spiro[6,8-dihydro-5H-pyrazolo[4,3-c]azepine-7,4′-tetrahydropyran]-1-yl)-2-methyl-propyl] 4-sulfamoylbenzoate] yielded an IC50 of less than 100 nM.
For `CCc1nn(CCCOC(=O)c2ccc(C#N)cc2)c2c1C(=O)NCC1(CCOCC1)C2` [Example 24, 3-(3-ethyl-4-oxo-spiro[6,8-dihydro-5H-pyrazolo[4,3-c]azepine-7,4′-tetrahydropyran]-1-yl)propyl 4-cyanobenzoate], the IC50 was less than 100 nM.
`CCc1nn(CCCOC(=O)c2ccc(OC)c(C(F)(F)F)c2)c2c1C(=O)NCC1(CCOCC1)C2` [Example 118, 3-(3-ethyl-4-oxo-spiro[6,8-dihydro-5H-pyrazolo[4,3-c]azepine-7,4′-tetrahydropyran]-1-yl)propyI 4-methoxy-3-(trifluoromethyl)benzoate] gave an IC50 of less than 100 nM.
Work on `CCc1nn(CCCOC(=O)c2cccc(S(=O)(=O)C(C)C)c2)c2c1C(=O)NCC1(CCOCC1)C2` [Example 129, 3-(3-ethyl-4-oxo-spiro[6,8-dihydro-5H-pyrazolo[4,3-c]azepine-7,4′-tetrahydropyran]-1-yl)propyl 3-isopropylsulfonylbenzoate] yielded an IC50 of less than 100 nM.
`CCc1nn(C[C@@H](C)COC(=O)c2ccc(C(F)(F)F)cc2F)c2c1C(=O)NCC1(CCOCC1)C2` [Example 221, [(2R)-3-(3-ethyl-4-oxo-spiro[6,8-dihydro-5H-pyrazolo[4,3-c]azepine-7,4′-tetrahydropyran]-1-yl)-2-methyl-propyl] 2-fluoro-4-(trifluoromethyl)benzoate] gave an IC50 of less than 100 nM.
With `CCc1nn(CCCOC(=O)c2c(F)cccc2C(F)(F)F)c2c1C(=O)NCC1(CCOCC1)C2` [Example 107, 3-(3-ethyl-4-oxo-spiro[6,8-dihydro-5H-pyrazolo[4,3-c]azepine-7,4′-tetrahydropyran]-1-yl)propyl 2-fluoro-6-(trifluoromethyl)benzoate] the IC50 was less than 100 nM.
`CCc1nn(C[C@@H](C)COC(=O)c2ccc(Cl)cc2)c2c1C(=O)NCC1(CCOCC1)C2` [Example 175, [(2R)-3-(3-ethyl-4-oxo-spiro[6,8-dihydro-5H-pyrazolo[4,3-c]azepine-7,4′-tetrahydropyran]-1-yl)-2-methyl-propyl] 4-chlorobenzoate] was tested, and the IC50 was less than 100 nM.
`CCc1nn(C[C@@H](C)COC(=O)c2ccc(F)cc2)c2c1C(=O)NCC1(CCOCC1)C2` [Example 166, [(2R)-3-(3-ethyl-4-oxo-spiro[6,8-dihydro-5H-pyrazolo[4,3-c]azepine-7,4′-tetrahydropyran]-1-yl)-2-methyl-propyl] 4-fluorobenzoate] was tested, and the IC50 was less than 100 nM.

Same assay, conditions: read-out: PDE4 IC50 range
Work on `CCc1nn(CCCCOC(=O)c2ccc(C(=O)N3CCOCC3)cc2)c2c1C(=O)NCC1(CCOCC1)C2` [Example 381, 4-(3-ethyl-4-oxo-spiro[6,8-dihydro-5H-pyrazolo[4,3-c]azepine-7,4′-tetrahydropyran]-1-yl)butyl 4-(morpholine-4-carbonyl)benzoate] yielded an IC50 of 100 to 500 nM.
With `CCc1nn(C[C@@H](C)COC(=O)c2cccc(C(=O)N3CCN(C)CC3)c2)c2c1C(=O)NCC1(CCOCC1)C2` [Example 272, [(2R)-3-(3-ethyl-4-oxo-spiro[6,8-dihydro-5H-pyrazolo[4,3-c]azepine-7,4′-tetrahydropyran]-1-yl)-2-methyl-propyl] 3-(4-methylpiperazine-1-carbonyl)benzoate] the IC50 was less than 100 nM.
`CCc1nn(CC(C)(C)COC(=O)c2ccc(S(=O)(=O)N(C)C)cc2)c2c1C(=O)NCC1(CCOCC1)C2` [Example 318, [3-(3-ethyl-4-oxo-spiro[6,8-dihydro-5H-pyrazolo[4,3-c]azepine-7,4′-tetrahydropyran]-1-yl)-2,2-dimethyl-propyl] 4-(dimethylsulfamoyl)benzoate] was tested, and the IC50 was less than 100 nM.
Work on `CCc1nn(CC(C)(C)COC(=O)c2ccc(F)cc2Cl)c2c1C(=O)NCC1(CCOCC1)C2` [Example 301, [3-(3-ethyl-4-oxo-spiro[6,8-dihydro-5H-pyrazolo[4,3-c]azepine-7,4′-tetrahydropyran]-1-yl)-2,2-dimethyl-propyl] 2-chloro-4-fluoro-benzoate] yielded an IC50 of less than 100 nM.
In the case of `CCNC(=O)c1ccc(C(=O)OCC(C)(C)Cn2nc(CC)c3c2CC2(CCOCC2)CNC3=O)cc1` [Example 330, [3-(3-ethyl-4-oxo-Spiro[6,8-dihydro-5H-pyrazolo[4,3-c]azepine-7,4′-tetrahydropyran]-1-yl)-2,2-dimethyl-propyl] 4-(ethylcarbamoyl)benzoate], the IC50 is reported as less than 100 nM.
`CCc1nn(CC2(COC(=O)c3ccc(F)cc3)COC2)c2c1C(=O)NCC1(CCOCC1)C2` [Example 359, [3-[(3-ethyl-4-oxo-spiro[6,8-dihydro-5H-pyrazolo[4,3-c]azepine-7,4′-tetrahydropyran]-1-yl)methyl]oxetan-3-yl]methyl 4-fluorobenzoate] showed an IC50 of less than 100 nM.
With `CCc1nn(CC(C)(C)COC(=O)c2ccc(S(=O)(=O)N3CCOCC3)cc2)c2c1C(=O)NCC1(CCOCC1)C2` [Example 322, [3-(3-ethyl-4-oxo-spiro[6,8-dihydro-5H-pyrazolo[4,3-c]azepine-7,4′-tetrahydropyran]-1-yl)-2,2-dimethyl-propyl] 4-morpholinosulfonylbenzoate] the IC50 was less than 100 nM.
